*1 amine or outer side, *2 acyl side, *3 side chain or, on linkers, in order; H or OH if unused. Where a SMILES comes first, the peptide text is derived from it. Bridges are numbered along the chain shown (N, C = ends). [ ]: non-standard residue; d: D form. Ala(pyrimidin-5-yl) = N[C@@H](Cc1cncnc1)C(=O)O; Phe(3-COOH) = N[C@@H](Cc1cccc(C(=O)O)c1)C(=O)O; NMe3Pal(6-Me) = CN[C@@H](Cc1ccc(C)nc1)C(=O)O; NMe3Pal(5-F) = CN[C@@H](Cc1cncc(F)c1)C(=O)O; NMePhe(3-Me) = CN[C@@H](Cc1cccc(C)c1)C(=O)O; NMePhe(4-Me) = CN[C@@H](Cc1ccc(C)cc1)C(=O)O; X13 = O=C([C@H](Cc1ccncc1F)N[*:1])[*:2]; NMeAha = CN[C@@H](CCN=[N+]=[N-])C(=O)O; X40 = CC(C)(F)C[C@H](N[*:1])C(=O)[*:2]; 1Nal = N[C@@H](Cc1cccc2ccccc12)C(=O)O; NHCH2CH2SCH2CO = O=C(CSCCN[*:1])[*:2]; Phe(2-F) = N[C@@H](Cc1ccccc1F)C(=O)O; X31 = O=C([C@H](CCC1CC1)N[*:1])[*:2]; NMe3Pal = CN[C@@H](Cc1cccnc1)C(=O)O; X1 = O=C(C12CC(CN[*:1])(C1)C2)[*:2]; Ala(cPr) = N[C@@H](CC1CC1)C(=O)O; NMeF = CN[C@@H](Cc1ccccc1)C(=O)O; PhLac = O=C(O)[C@@H](O)Cc1ccccc1; 3Pal = N[C@@H](Cc1cccnc1)C(=O)O; Ahp(2) = CCCCC[C@H](N)C(=O)O; Cba = N[C@@H](CC1CCC1)C(=O)O; hLeu = CC(C)CC[C@H](N)C(=O)O; αMeC = C[C@](N)(CS)C(=O)O; NMeA = CN[C@@H](C)C(=O)O; Nle = CCCC[C@H](N)C(=O)O
The molecules below were run against phosphorylation levels of ERK1/2 in AsPC-1 (homozygous KRAS-G12D) cells (Homo sapiens, UniProt P01116, G12D) (assay: Cellular phospho-ERK assay in AsPC-1 cells (Alpha Screen), assay medium without fetal bovine serum). Details: phospho-ERK AlphaScreen, 18 h.
Format: cell-based
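Further: signal taken as phospho-ERK over total ERK per well, both detected in one multiplex bead assay, EC50 from four-parameter logistic fit of dose-response curves.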

phosphorylation levels of ERK1/2 in AsPC-1 (homozygous KRAS-G12D) cells, sequence (P01116 1-186 G12D): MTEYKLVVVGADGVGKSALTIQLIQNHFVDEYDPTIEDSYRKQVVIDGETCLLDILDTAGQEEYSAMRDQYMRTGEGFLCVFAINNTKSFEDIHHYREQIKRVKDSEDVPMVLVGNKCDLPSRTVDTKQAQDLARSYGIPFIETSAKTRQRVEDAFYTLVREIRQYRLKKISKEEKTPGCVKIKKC

| SMILES | EC50 |
| --- | --- |
| CCCC[C@@H]1NC(=O)[C@H](Cc2cccnc2)NC(=O)[C@H](CCN=[N+]=[N-])N(C)C(=O)[C@H](Cc2ccccc2)OC(=O)C23CC(CNC(=O)[C@H](Cc4cccnc4)N(C)C(=O)[C@H](CCCC)NC(=O)[C@H](Cc4ccccc4F)NC1=O)(C2)C3 [compound 249, cyclo(FLac-NMeDabN3-3Pal-Nle-Phe2F-Nle-NMe3Pal-amBCP)] (cyclo([3Pal][Nle][Phe(2-F)][Nle][NMe3Pal][X1][PhLac][NMeAha])) | 3.95 µM |
| CCCC[C@@H]1NC(=O)[C@H](Cc2ccccc2F)NC(=O)[C@H](CCC(C)C)NC(=O)[C@H](Cc2cncnc2)NC(=O)[C@H](C)N(C)C(=O)[C@H](Cc2ccccc2)OC(=O)C23CC(CNC(=O)[C@H](Cc4cccnc4)N(C)C1=O)(C2)C3 [compound 127, cyclo(FLac-NMeA-PyrimAla-hL-Phe2F-Nle-NMe3Pal-amBCP)] (cyclo([NMe3Pal][X1][PhLac][NMeA][Ala(pyrimidin-5-yl)][hLeu][Phe(2-F)][Nle])) | > 50.8 µM |
| CCCC[C@@H]1NC(=O)[C@H](Cc2cccnc2)NC(=O)[C@H](CCCNC(=N)N)NC(=O)[C@H](Cc2ccccc2)OC(=O)C23CC(CNC(=O)[C@H](Cc4ccccc4)N(C)C(=O)[C@H](CCCC)NC(=O)[C@H](Cc4ccccc4F)NC1=O)(C2)C3 [compound 212, cyclo(FLac-R-3Pal-Nle-Phe2F-Nle-NMeF-amBCP)] (cyclo([PhLac]R[3Pal][Nle][Phe(2-F)][Nle][NMeF][X1])) | 39.4 µM |
| CCCC[C@@H]1NC(=O)[C@H](Cc2ccc(C(F)(F)F)nc2)NC(=O)[C@H](CCCn2ccnc2)N(C)C(=O)[C@H](Cc2ccccc2)OC(=O)C23CC(CNC(=O)[C@H](Cc4ccccc4)N(C)C(=O)[C@H](CCCC)NC(=O)[C@H](Cc4ccccc4F)NC1=O)(C2)C3 (single isomer, unassigned) [compound 219, cyclo(FLac-NMeNvaImid-4CF33Pal-Nle-Phe2F-Nle-NMeF-amBCP)] | > 50.8 µM |
| CCCC[C@@H]1NC(=O)[C@H](Cc2cncnc2)NC(=O)[C@H](CCN=[N+]=[N-])N(C)C(=O)[C@H](Cc2ccccc2)OC(=O)C23CC(CNC(=O)[C@H](Cc4cccnc4)N(C)C(=O)[C@H](CCCC)NC(=O)[C@H](Cc4ccccc4F)NC1=O)(C2)C3 [compound 242, cyclo(FLac-NMeDabN3-PyrimAla-Nle-Phe2F-Nle-NMe3Pal-amBCP)] (cyclo([NMe3Pal][X1][PhLac][NMeAha][Ala(pyrimidin-5-yl)][Nle][Phe(2-F)][Nle])) | 11.6 µM |
| CON=C1C[C@@H](Cc2ccccc2)C(=O)N(C)[C@@H](C)C(=O)N[C@@H](Cc2cncnc2)C(=O)N[C@@H](CC2CC2)C(=O)N[C@@H](Cc2ccccc2F)C(=O)N[C@@H](CCC(C)(F)F)C(=O)N(C)[C@@H](Cc2ccccc2)C(=O)NCC23CC1(C2)C3 (single isomer, unassigned) [compound 178, cyclo(CPhe-NMeA-PyrimAla-cPrA-Phe2F-Nle3F2-NMeF-MeOximamBCP)] | 0.128 µM |
| CCCCC[C@@H]1NC(=O)[C@H](Cc2ccc(OC)cc2)NC(=O)[C@H](CC2CCC2)NC(=O)[C@H](Cc2cccnc2)NC(=O)[C@H](CCCNC(=N)N)NC(=O)[C@H](Cc2ccccc2F)NC(=O)CSC[C@@](C)(C(N)=O)NC(=O)[C@H](Cc2ccccc2)N(C)C1=O [compound 370, cyclo(Phe2F-R-3Pal-cBuA-TyrOMe-Ahp-NMeF-aMeCl-ClAc)] | > 50.8 µM |
| CC(C)CC[C@@H]1NC(=O)[C@H](Cc2ccccc2F)NC(=O)[C@H](CC(C)(C)F)NC(=O)[C@H](Cc2cncnc2)NC(=O)[C@H](C)N(C)C(=O)[C@H](Cc2ccccc2)OC(=O)C23CC(CNC(=O)[C@H](Cc4ccccc4)N(C)C1=O)(C2)C3 [compound 136, cyclo(FLac-NMeA-PyrimAla-Leu3F-Phe2F-hL-NMeF-amBCP)] (cyclo([NMeA][Ala(pyrimidin-5-yl)][X40][Phe(2-F)][hLeu][NMeF][X1][PhLac])) | 7.73 µM |
| CC(C)CC[C@@H]1NC(=O)[C@H](Cc2ccccc2F)NC(=O)[C@H](CC2CC2)NC(=O)[C@H](Cc2cncnc2)NC(=O)[C@H](C)N(C)C(=O)[C@H](Cc2ccccc2)OC(=O)C23CC(CNC(=O)[C@H](Cc4cncc(F)c4)N(C)C1=O)(C2)C3 [compound 282, cyclo(FLac-NMeA-PyrimAla-cPrA-Phe2F-hL-NMe3Pal5F-amBCP)] (cyclo([Ala(cPr)][Phe(2-F)][hLeu][NMe3Pal(5-F)][X1][PhLac][NMeA][Ala(pyrimidin-5-yl)])) | 2.49 µM |
| CCCCC[C@@H]1NC(=O)[C@H](Cc2ccc(OC)cc2)NC(=O)[C@H](CC2CCC2)NC(=O)[C@H](Cc2cccnc2)NC(=O)[C@H](CCCNC(=N)N)NC(=O)[C@H](Cc2ccccc2)NC(=O)CSC[C@@](C)(C(N)=O)NC(=O)[C@H](Cc2ccc(C)nc2)N(C)C1=O [compound 377, cyclo(F-R-3Pal-cBuA-TyrOMe-Ahp-NMe3Pal4Me-aMeCl-ClAc)] ({CH2CO}-FR[3Pal][Cba]Y(Me)[Ahp(2)][NMe3Pal(6-Me)][αMeC]-NH2; thioether N-8) | > 50.8 µM |
| CCCC[C@@H]1NC(=O)[C@H](Cc2ccccc2F)NC(=O)[C@H](CC2CCC2)NC(=O)[C@H](Cc2cncnc2)NC(=O)[C@H](C)N(C)C(=O)[C@H](Cc2ccccc2)OC(=O)C23CC(CNC(=O)[C@H](Cc4cccnc4)N(C)C1=O)(C2)C3 [compound 125, cyclo(FLac-NMeA-PyrimAla-cBuA-Phe2F-Nle-NMe3Pal-amBCP)] (cyclo([Cba][Phe(2-F)][Nle][NMe3Pal][X1][PhLac][NMeA][Ala(pyrimidin-5-yl)])) | 45 µM |
| Cc1cccc(C[C@H]2C(=O)NCC34CC(C3)(C4)C(=O)O[C@@H](Cc3ccccc3)C(=O)N(C)[C@@H](C)C(=O)N[C@@H](Cc3cncnc3)C(=O)N[C@@H](CC3CC3)C(=O)N[C@@H](Cc3ccncc3F)C(=O)N[C@@H](CCC(C)C)C(=O)N2C)c1 [compound 279, cyclo(FLac-NMeA-PyrimAla-cPrA-4Pal2F-hL-NMePhe3Me-amBCP)] (cyclo([Ala(cPr)][X13][hLeu][NMePhe(3-Me)][X1][PhLac][NMeA][Ala(pyrimidin-5-yl)])) | 4.02 µM |
| C[C@H]1C(=O)N[C@@H](Cc2cncnc2)C(=O)N[C@@H](CC2CCC2)C(=O)N[C@@H](Cc2ccccc2F)C(=O)N[C@@H](CCC2CC2)C(=O)N(C)[C@@H](Cc2ccccc2)C(=O)NCC23CC(C2)(C3)C(=O)O[C@@H](Cc2ccccc2)C(=O)N1C [compound 115, cyclo(FLac-NMeA-PyrimAla-cBuA-Phe2F-hcPrA-NMeF-amBCP)] (cyclo([Cba][Phe(2-F)][X31][NMeF][X1][PhLac][NMeA][Ala(pyrimidin-5-yl)])) | 0.437 µM |
| CCCC[C@@H]1NC(=O)[C@H](CCCCN)NC(=O)[C@H](CCCNC(=N)N)NC(=O)[C@H](Cc2cccc3ccccc23)NC(=O)CSCCNC(=O)[C@H](Cc2ccccc2)N(C)C(=O)[C@H](CCCC)NC(=O)[C@H](Cc2cccc(C(=O)O)c2)NC1=O [compound 197, cyclo(1Nal-R-K-Nle-Phe3COOH-Nle-NMeF-Cysteamine)-ClAc] (cyclo([1Nal]RK[Nle][Phe(3-COOH)][Nle][NMeF][NHCH2CH2SCH2CO])) | > 50.8 µM |
| CCCC[C@@H]1NC(=O)[C@H](Cc2cncnc2)NC(=O)[C@H](C)N(C)C(=O)[C@H](Cc2ccccc2)OC(=O)C23CC(CNC(=O)[C@H](Cc4ccc(C)cc4)N(C)C(=O)[C@H](CCCC)NC(=O)[C@H](Cc4ccccc4F)NC1=O)(C2)C3 [compound 171, cyclo(FLac-NMeA-PyrimAla-Nle-Phe2F-Nle-NMePhe4Me-amBCP)] (cyclo([NMeA][Ala(pyrimidin-5-yl)][Nle][Phe(2-F)][Nle][NMePhe(4-Me)][X1][PhLac])) | 0.223 µM |

Reference: patent US20260001914A1, “MACROCYCLIC PEPTIDES TARGETING KRAS” (Merck Sharp & Dohme LLC, priority 2022, published 2026)
